In EPA's ToxRefDB 2:

What was measured:
rat [1] = conditions: Prenatal developmental toxicity study; sprague dawley; Oral; Gavage/Intubation; dose end: 17 GD; group: maternal; reproductive / reproductive performance / estrous cycle / corpora lutea + reproductive / reproductive performance / postimplantation loss / …
rabbit [2] = conditions: Prenatal developmental toxicity study, new zealand white, Oral, Gavage/Intubation, dose end: 19 GD
rabbit [3] = conditions: Prenatal developmental toxicity study, new zealand white, Oral, Gavage/Intubation, dose end: 19 GD; remark: listed apart in the source
rat [4] = conditions: Sub-acute repeat dose toxicity; sprague dawley; Oral; Gavage/Intubation; dose end: 1 month; group: systemic; systemic / clinical chemistry / cholesterol / cholesterol + systemic / clinical chemistry / globulins / globulins + systemic / hematology / …
rat [5] = conditions: Carcinogenicity, fischer, Oral, Feed, dose end: 59 week, group: systemic
rat [6] = conditions: Sub-acute repeat dose toxicity; fischer; Oral; Feed; dose end: 4 week; group: systemic; systemic / in life observation / body weight / body weight gain
mouse [7] = conditions: Carcinogenicity; b6c3f1; Oral; Feed; dose end: 78 week; group: systemic; systemic / in life observation / body weight / body weight + systemic / pathology microscopic / liver / cytoplasmic alteration + systemic / …
rat [8] = conditions: Developmental neurotoxicity study; fischer; Injection; Intraperitoneal; dose end: 30 PND; group: cannot be grouped; systemic / in life observation / body weight / offspring (pup) weight
rat [9] = conditions: Subchronic oral toxicity in rodents, fischer, Feed, dose end: 13 week, group: systemic
mouse [10] = conditions: Subchronic oral toxicity in rodents, b6c3f1, Feed, dose end: 13 week, group: systemic, systemic / in life observation / body weight / body weight gain
rat [11] = conditions: Chronic toxicity, sprague dawley, Oral, Gavage/Intubation, dose end: 53 week, group: systemic
rat [12] = conditions: Prenatal developmental toxicity study; sprague dawley; Oral; Gavage/Intubation; dose end: 20 GD; group: maternal; systemic / in life observation / body weight / body weight gain
rat [13] = conditions: Developmental neurotoxicity study; sprague dawley; Oral; Gavage/Intubation; dose end: 125 PND; group: cannot be grouped; systemic / in life observation / body weight / offspring (pup) weight
rat [14] = conditions: Developmental neurotoxicity study; sprague dawley; Oral; Feed; dose end: 48 PND; group: cannot be grouped; developmental / developmental landmark / eye opening / eye opening + reproductive / offspring survival early / litter size / litter size + …
mouse [15] = conditions: Carcinogenicity; other; Oral; Water; dose end: 36 week; group: systemic; systemic / pathology microscopic / liver / adenoma + systemic / organ weight / liver / absolute + systemic / organ weight / liver / relative…
rat [16] = conditions: Chronic toxicity, fischer, Oral, Feed, dose end: 104 week, group: systemic
rat [17] = conditions: Peri- and post-natal toxicity study (Segment III), sprague dawley, Oral, Gavage/Intubation, dose end: 54 PND
dog [18] = conditions: Chronic toxicity; beagle; Oral; Feed; dose end: 52 week; group: systemic; systemic / clinical chemistry / bilirubin / total bilirubin + systemic / hematology / erythrocyte (rbc) count differential / erythrocyte (…
rat [19] = conditions: Multigenerational reproductive toxicity study, sprague dawley, Oral, Feed, dose end: 2 generation
rat [20] = conditions: Subchronic oral toxicity in rodents, sprague dawley, Feed, dose end: 13 week, group: systemic
mouse [21] = conditions: Carcinogenicity, cd1, Oral, Feed, dose end: 18 month, group: systemic
mouse [22] = conditions: Subchronic oral toxicity in rodents, cd1, Feed, dose end: 90 day, group: systemic
dog [23] = conditions: Subchronic oral toxicity in nonrodent, beagle, Feed, dose end: 90 day, group: systemic
rat [24] = conditions: Combined chronic toxicity/carcinogenicity, sprague dawley, Oral, Feed, dose end: 24 month, group: systemic
mouse [25] = conditions: Carcinogenicity; b6c3f1; Oral; Feed; dose end: 78 week; group: systemic; systemic / in life observation / body weight / body weight
[26] = group: developmental, developmental / developmental malformation / bone / domed head + developmental / developmental malformation / brain / hydrocephaly + …
[27] = group: maternal, systemic / in life observation / clinical signs / discharge on cageboard + systemic / in life observation / food consumption / food …
[28] = group: developmental, developmental / developmental malformation / bone / domed head + developmental / developmental malformation / bone / fused + developmental…
[29] = group: maternal, systemic / in life observation / body weight / body weight gain + systemic / in life observation / clinical signs / defecation + systemic / …
[30] = systemic / in life observation / body weight / body weight
[31] = systemic / in life observation / body weight / body weight gain + systemic / pathology microscopic / bone marrow / depletion + systemic / …
[32] = systemic / in life observation / body weight / body weight gain + systemic / pathology microscopic / bone marrow / hyperplasia + systemic / …
[33] = systemic / clinical chemistry / alkaline phosphatase (alp/alk) / alkaline phosphatase (alp/alk) + systemic / clinical chemistry / aspartate …
[34] = systemic / hematology / monocytes / monocytes + systemic / in life observation / clinical signs / salivation
[35] = systemic / organ weight / liver / relative to body weight + systemic / pathology gross / liver / discolored + systemic / pathology gross / …
[36] = group: developmental, developmental / developmental landmark / vaginal opening / vaginal opening + developmental / developmental landmark / preputial separation…
[37] = group: parental, systemic / in life observation / clinical signs / ataxia + systemic / in life observation / clinical signs / prostration + systemic / organ …
[38] = group: parental, systemic / organ weight / adrenal gland / absolute + systemic / organ weight / liver / absolute
[39] = group: offspring, developmental / offspring survival late / viability index / viability index
[40] = group: parental, systemic / pathology microscopic / spleen / pigmentation
[41] = group: parental, systemic / pathology microscopic / spleen / pigmentation + systemic / in life observation / body weight / body weight + systemic / in life …
[42] = group: reproductive, reproductive / offspring survival early / birth index / live birth index
[43] = systemic / hematology / erythrocyte (rbc) count differential / erythrocyte (rbc) + systemic / hematology / hemoglobin (hgb) / hemoglobin (…
[44] = systemic / in life observation / mortality / mortality
[45] = systemic / in life observation / body weight / body weight gain
[46] = systemic / in life observation / body weight / body weight gain + systemic / clinical chemistry / alkaline phosphatase (alp/alk) / alkaline …
[47] = systemic / hematology / heinz body / heinz body + systemic / hematology / hematocrit (hct) / hematocrit (hct) + systemic / hematology / …
[48] = systemic / urinalysis / appearance and color / appearance and color
[49] = systemic / hematology / erythrocyte (rbc) count differential / erythrocyte (rbc) + systemic / hematology / hematocrit (hct) / hematocrit (…

CC(=O)NC1(c2cccc(F)c2)CCN(CC[C@@]2(c3ccc(Cl)c(Cl)c3)CN(c3ccccc3)C(=O)CO2)CC1.O=C(O)CCC(=O)O
LEL (rat [1]): 500 mg/kg/day
LOAEL (rat [1]): > 1500 mg/kg/day
NEL (rat [1]): < 500 mg/kg/day
NOAEL (rat [1]): ≥ 1500 mg/kg/day
LEL (rabbit [2]; [26]): 1000 mg/kg/day
LOAEL (rabbit [2]; [26]): 1000 mg/kg/day
NEL (rabbit [2]; [26]): 500 mg/kg/day
NOAEL (rabbit [2]; [26]): 500 mg/kg/day
LEL (rabbit [2]; [27]): 1000 mg/kg/day
LOAEL (rabbit [2]; [27]): 1000 mg/kg/day
NEL (rabbit [2]; [27]): 500 mg/kg/day
NOAEL (rabbit [2]; [27]): 500 mg/kg/day
LEL (rabbit [3]; [28]): 1000 mg/kg/day
LOAEL (rabbit [3]; [28]): 1000 mg/kg/day
NEL (rabbit [3]; [28]): 200 mg/kg/day
NOAEL (rabbit [3]; [28]): 200 mg/kg/day
LEL (rabbit [3]; [29]): 1000 mg/kg/day
LOAEL (rabbit [3]; [29]): 1000 mg/kg/day
NEL (rabbit [3]; [29]): 200 mg/kg/day
NOAEL (rabbit [3]; [29]): 200 mg/kg/day
LEL (rat [4]): 200 mg/kg/day
LOAEL (rat [4]): 200 mg/kg/day
NEL (rat [4]): 30 mg/kg/day
NOAEL (rat [4]): 30 mg/kg/day

CN(C)c1ccc(Cc2ccc(N(C)C)cc2)cc1 [4,4'-Methylenebis(N,N-dimethylaniline)]
LEL (rat [5]; [30]): 18.8 mg/kg/day
LOAEL (rat [5]; [30]): 37.5 mg/kg/day
NEL (rat [5]; [30]): < 18.8 mg/kg/day
NOAEL (rat [5]; systemic / in life observation / body weight / body weight + systemic / pathology microscopic / thyroid gland / adenoma + systemic / …): 18.8 mg/kg/day
LEL (rat [6]): 7.25 mg/kg/day
LOAEL (rat [6]): 34 mg/kg/day
NEL (rat [6]): < 7.25 mg/kg/day
NOAEL (rat [6]): 15.8 mg/kg/day
LEL (mouse [7]): 188 mg/kg/day
LOAEL (mouse [7]): 188 mg/kg/day
NEL (mouse [7]): < 188 mg/kg/day
NOAEL (mouse [7]): < 188 mg/kg/day

CN=C1CN(O)C(c2ccccc2)=c2cc(Cl)ccc2=N1 [Chlordiazepoxide]
LEL (rat [8]): 1 mg/kg/day
LOAEL (rat [8]): > 1 mg/kg/day
NEL (rat [8]): < 1 mg/kg/day
NOAEL (rat [8]): ≥ 1 mg/kg/day

O=C1O[C@H]([C@@H](O)CO)C(O)=C1O [L-Ascorbic acid]
LOAEL (rat [9]; [31]): 5000 mg/kg/day
NOAEL (rat [9]; [31]): 2500 mg/kg/day
LEL (rat [9]; [32]): 1250 mg/kg/day
NEL (rat [9]; [32]): < 1250 mg/kg/day
LEL (mouse [10]): 7500 mg/kg/day
LOAEL (mouse [10]): 7500 mg/kg/day
NEL (mouse [10]): 3750 mg/kg/day
NOAEL (mouse [10]): 3750 mg/kg/day

CO[C@@H]1COCC[C@@H]1[NH2+][C@@H]1CC[C@@](C(=O)N2CCc3ncc(C(F)(F)F)cc3C2)(C(C)C)C1.O=C([O-])CCC(=O)O [MK-812]
LOAEL (rat [11]; [33]): > 80 mg/kg/day
NOAEL (rat [11]; [33]): ≥ 80 mg/kg/day
LEL (rat [11]; [34]): 5 mg/kg/day
NEL (rat [11]; [34]): < 5 mg/kg/day
LEL (rat [12]): 30 mg/kg/day
LOAEL (rat [12]): > 30 mg/kg/day
NEL (rat [12]): 10 mg/kg/day
NOAEL (rat [12]): ≥ 30 mg/kg/day

CCC1(c2ccccc2)C(=O)NC(=O)NC1=O [Phenobarbital]
LEL (rat [13]): 40 mg/kg/day
LOAEL (rat [13]): > 80 mg/kg/day
NEL (rat [13]): < 40 mg/kg/day
NOAEL (rat [13]): ≥ 80 mg/kg/day
LEL (rat [14]): 37.5 mg/kg/day
LOAEL (rat [14]): > 37.5 mg/kg/day
NEL (rat [14]): < 37.5 mg/kg/day
NOAEL (rat [14]): ≥ 37.5 mg/kg/day
LEL (mouse [15]): 75 mg/kg/day
LOAEL (mouse [15]): > 75 mg/kg/day
NEL (mouse [15]): < 75 mg/kg/day
NOAEL (mouse [15]): ≥ 75 mg/kg/day
LOAEL (rat [16]; [35]): > 19 mg/kg/day
NEL (rat [16]; [35]): 1.1 mg/kg/day
NOAEL (rat [16]; [35]): ≥ 19 mg/kg/day
LEL (rat [16]; systemic / organ weight / liver / relative to body weight + systemic / pathology gross / liver / mass + systemic / pathology microscopic / …): 4.6 mg/kg/day
NEL (rat [17]; group: developmental, developmental / developmental landmark / vaginal opening / vaginal opening): 50 mg/kg/day
LEL (rat [17]; [36]): 100 mg/kg/day
LOAEL (rat [17]; [36]): > 100 mg/kg/day
NOAEL (rat [17]; [36]): ≥ 100 mg/kg/day
LOAEL (rat [17]; [37]): > 100 mg/kg/day
NOAEL (rat [17]; [37]): ≥ 100 mg/kg/day
LEL (rat [17]; [38]): 25 mg/kg/day
NEL (rat [17]; [38]): < 25 mg/kg/day

CCc1ccc(C(=O)NN(C(=O)c2cc(C)cc(C)c2)C(C)(C)C)cc1 [Tebufenozide]
LEL (dog [18]): 7 mg/kg/day
LOAEL (dog [18]): 7 mg/kg/day
NEL (dog [18]): 1.6 mg/kg/day
NOAEL (dog [18]): 1.6 mg/kg/day
LEL (rat [19]; [39]): 155 mg/kg/day
LOAEL (rat [19]; [39]): > 155 mg/kg/day
NEL (rat [19]; [39]): 11.5 mg/kg/day
NOAEL (rat [19]; [39]): ≥ 155 mg/kg/day
LEL (rat [19]; [40]): 11.5 mg/kg/day
LOAEL (rat [19]; [40]): 11.5 mg/kg/day
NEL (rat [19]; [41]): 0.8 mg/kg/day
NOAEL (rat [19]; [41]): 0.8 mg/kg/day
LEL (rat [19]; [42]): 155 mg/kg/day
LOAEL (rat [19]; [42]): 155 mg/kg/day
NEL (rat [19]; [42]): 11.5 mg/kg/day
NOAEL (rat [19]; [42]): 11.5 mg/kg/day
LOAEL (rat [20]; [43]): 133 mg/kg/day
NEL (rat [20]; [43]): 1.3 mg/kg/day
NOAEL (rat [20]; [43]): 13.1 mg/kg/day
LEL (rat [20]; systemic / organ weight / testes / relative to body weight): 13.1 mg/kg/day
LEL (mouse [21]; [44]): 0.8 mg/kg/day
NEL (mouse [21]; [44]): < 0.8 mg/kg/day
LOAEL (mouse [21]; systemic / in life observation / mortality / mortality + systemic / pathology microscopic / spleen / pigmentation + systemic / organ weight…): 78 mg/kg/day
NOAEL (mouse [21]; systemic / pathology microscopic / spleen / pigmentation + systemic / organ weight / spleen / absolute): 7.8 mg/kg/day
LEL (mouse [22]; [45]): 35.3 mg/kg/day
LOAEL (mouse [22]; [45]): 35.3 mg/kg/day
NEL (mouse [22]; [46]): 3.4 mg/kg/day
NOAEL (mouse [22]; [46]): 3.4 mg/kg/day
LOAEL (dog [23]; [47]): 20.1 mg/kg/day
NOAEL (dog [23]; [47]): 2.1 mg/kg/day
LEL (dog [23]; [48]): 2.1 mg/kg/day
NEL (dog [23]; [48]): < 2.1 mg/kg/day
LOAEL (rat [24]; [49]): 48 mg/kg/day
NOAEL (rat [24]; [49]): 5 mg/kg/day
LEL (rat [24]; systemic / pathology gross / ovary / cyst): 6 mg/kg/day
NEL (rat [24]; systemic / pathology gross / ovary / cyst + systemic / organ weight / adrenal gland / relative to body weight + systemic / organ weight / …): 0.6 mg/kg/day

N[C@@H](Cc1c[nH]c2ccccc12)C(=O)O [l-Tryptophan]
LEL (mouse [25]): 3750 mg/kg/day
LOAEL (mouse [25]): 3750 mg/kg/day
NEL (mouse [25]): < 3750 mg/kg/day
NOAEL (mouse [25]): < 3750 mg/kg/day
